Test results as given in the supplement of paper PMC10627819.

Columns and labels:
S. aureus Newman [1] = experiment: Bliss interaction score (quartile over a dose matrix) (fitness difference); higher = more antagonism (negative = synergy)
Summary of the method: (§1)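 The Bliss score was calculated by subtracting the expected fitness, the product of single-drug values, from the observed fitness. OD595 at entry into stationary phase, over the plate's robust no-drug mean and capped at 1, served as the fitness readout. Single-drug values were inferred from combination data, and scores are summarised by quartiles across technical, biological and donor/recipient replicates.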

S. pneumoniae D39V [2] = experiment: as above
Summary of the method: as §1

S. aureus DSM 20231 [3] = experiment: as above
Summary of the method: as §1

B. subtilis 168 [4] = experiment: as above
Summary of the method: as §1

S. pneumoniae D39V [5] = experiment: fitness (endpoint OD595 vs no drug) (fraction); higher = more growth
Summary of the method: (§2)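 With the first reading as background, OD595 was measured every 30 min for 14 h in 384-well plates kept at 37 °C and inoculated at OD595 0.01. TSB, LB Lennox or CY was the medium. Fitness is the optical density at the transition into stationary phase divided by the robust mean of no-drug control wells, with a cap of 1.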

S. aureus DSM 20231 [6] = experiment: as above
Summary of the method: as §2

B. subtilis 168 [7] = experiment: as above
Summary of the method: as §2

S. aureus Newman [8] = experiment: as above; details: main component drawn
Summary of the method: as §2
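Throughout, for Bliss interaction score (quartile over a dose matrix): first quartile when negative (synergy) and third quartile when positive (antagonism).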

COc1cccc2c1C(=O)c1c(O)c3c(c(O)c1C2=O)C[C@@](O)(C(=O)CO)C[C@@H]3O[C@H]1C[C@H](N)[C@H](O)[C@H](C)O1 [Doxorubicin] + CC(=O)NC[C@H]1CN(c2ccc(N3CCOCC3)c(F)c2)C(=O)O1 [Linezolid]
Details	Bliss interaction score
B. subtilis 168 [4]	-0.0705
S. aureus DSM 20231 [3]	-0.0425
S. aureus Newman [1]	0.0954
S. pneumoniae D39V [2]	-0.113

fitness
Details	first compound 0.25 µg/mL	first compound 0.5 µg/mL	first compound 0.625 µg/mL	first compound 1 µg/mL	first compound 1.25 µg/mL	first compound 2.5 µg/mL
B. subtilis 168 [7], partner 0.125 µg/mL	–	–	0.556	–	0.489	0.311
B. subtilis 168 [7], partner 0.25 µg/mL	–	–	0.0946	–	0.078	0.0654
B. subtilis 168 [7], partner 0.5 µg/mL	–	–	0.0377	–	0.0497	0.0425
S. aureus DSM 20231 [6], partner 0.125 µg/mL	–	–	0.762	–	0.814	0.716
S. aureus DSM 20231 [6], partner 0.25 µg/mL	–	–	0.617	–	0.603	0.514
S. aureus DSM 20231 [6], partner 0.5 µg/mL	–	–	0.223	–	0.204	0.16
S. pneumoniae D39V [5], partner 0.105 µg/mL	0.755	0.756	–	0.746	–	–
S. pneumoniae D39V [5], partner 0.2 µg/mL	0.49	0.487	–	0.412	–	–
S. pneumoniae D39V [5], partner 0.21 µg/mL	0.633	0.66	–	0.674	–	–
S. pneumoniae D39V [5], partner 0.4 µg/mL	0.351	0.331	–	0.302	–	–
S. pneumoniae D39V [5], partner 0.42 µg/mL	0.472	0.432	–	0.377	–	–
S. pneumoniae D39V [5], partner 0.8 µg/mL	0.155	0.153	–	0.141	–	–

fitness, one replicate
Details	first compound 0.625 µg/mL	first compound 1.25 µg/mL	first compound 2.5 µg/mL
B. subtilis 168 [7], partner 0.0625 µg/mL	0.956	0.901	0.574
S. aureus DSM 20231 [6], partner 1 µg/mL	0.0276	0.0358	0.0376

Cc1ncc([N+](=O)[O-])n1CCO [Metronidazole] + CCCCCCCCCC(=O)N[C@@H]1[C@H]([C@@H]([C@H](O[C@H]1OC2=C3C=C4C=C2OC5=C(C=C(C=C5)[C@H]([C@H]6C(=O)N[C@@H](C7=C(C(=CC(=C7)O)OC8[C@H]([C@H]([C@@H]([C@H](O8)CO)O)O)O)C9=C(C=CC(=C9)[C@H](C(=O)N6)NC(=O)[C@@H]4NC(=O)[C@@H]1C2=CC(=CC(=C2)OC2=C(C=CC(=C2)[C@H](C(=O)N[C@H](CC2=CC(=C(O3)C=C2)Cl)C(=O)N1)N)O)O)O)C(=O)O)O[C@H]1[C@@H]([C@H]([C@@H]([C@H](O1)CO)O)O)NC(=O)C)Cl)CO)O)O [Teicoplanin]
main component drawn
Details	Bliss interaction score
B. subtilis 168 [4]	0.0689
S. aureus DSM 20231 [3]	0.0308
S. aureus Newman [1]	0.0581
S. pneumoniae D39V [2]	0.126

fitness, S. aureus Newman [8]
Details	first compound 0.625 µg/mL	first compound 1.25 µg/mL	first compound 2.5 µg/mL
partner 0.1562 µg/mL	0.976	0.979	–
partner 0.3125 µg/mL	0.988	0.973	0.933
partner 0.625 µg/mL	0.927	0.925	0.752

fitness
Details	first compound 0.625 µg/mL	first compound 0.781 µg/mL	first compound 1.25 µg/mL	first compound 1.562 µg/mL	first compound 2.5 µg/mL	first compound 3.124 µg/mL
S. aureus DSM 20231 [6], partner 0.1562 µg/mL, main component drawn	0.967	–	≥ 1	–	≥ 1	–
S. aureus DSM 20231 [6], partner 0.3125 µg/mL, main component drawn	≥ 1	–	≥ 1	–	≥ 1	–
S. aureus DSM 20231 [6], partner 0.625 µg/mL, main component drawn	≥ 1	–	≥ 1	–	≥ 1	–
S. aureus Newman [8], partner 0.1562 µg/mL, one replicate	–	≥ 1	–	≥ 1	–	≥ 1
S. aureus Newman [8], partner 0.3125 µg/mL, one replicate	–	≥ 1	–	0.961	–	0.989
S. aureus Newman [8], partner 0.62 µg/mL, one replicate	0.82	–	0.795	–	0.81	–
S. aureus Newman [8], partner 0.625 µg/mL, one replicate	–	0.845	–	0.805	–	0.836
S. aureus Newman [8], partner 1.24 µg/mL, one replicate	0.745	–	0.774	–	0.76	–
S. aureus Newman [8], partner 2.48 µg/mL, one replicate	0.492	–	0.505	–	0.486	–

CO/N=C(\C(=O)N[C@@H]1C(=O)N2C(C(=O)O)=C(COC(C)=O)CS[C@H]12)c1csc(N)n1 [Cefotaxime] + CC(=O)NC[C@H]1CN(c2ccc(N3CCOCC3)c(F)c2)C(=O)O1 [Linezolid]
Details	Bliss interaction score
B. subtilis 168 [4]	0.0544
S. aureus DSM 20231 [3]	0.0531
S. aureus Newman [1]	-0.0569
S. pneumoniae D39V [2]	0.157

Details	fitness
B. subtilis 168 [7], first compound 0.5 µg/mL, partner 0.125 µg/mL	0.298
B. subtilis 168 [7], first compound 0.5 µg/mL, partner 0.25 µg/mL	0.0555
B. subtilis 168 [7], first compound 0.5 µg/mL, partner 0.5 µg/mL	0.0506
B. subtilis 168 [7], first compound 1 µg/mL, partner 0.125 µg/mL	0.218
B. subtilis 168 [7], first compound 1 µg/mL, partner 0.25 µg/mL	0.0513
B. subtilis 168 [7], first compound 1 µg/mL, partner 0.5 µg/mL	0.0306
B. subtilis 168 [7], first compound 2 µg/mL, partner 0.125 µg/mL	0.114
B. subtilis 168 [7], first compound 2 µg/mL, partner 0.25 µg/mL	0.0572
B. subtilis 168 [7], first compound 2 µg/mL, partner 0.5 µg/mL	0.0482
S. aureus DSM 20231 [6], first compound 0.039 µg/mL, partner 0.125 µg/mL	0.737
S. aureus DSM 20231 [6], first compound 0.039 µg/mL, partner 0.25 µg/mL	0.537
S. aureus DSM 20231 [6], first compound 0.039 µg/mL, partner 0.5 µg/mL	0.194
S. aureus DSM 20231 [6], first compound 0.078 µg/mL, partner 0.125 µg/mL	0.689
S. aureus DSM 20231 [6], first compound 0.078 µg/mL, partner 0.25 µg/mL	0.57
S. aureus DSM 20231 [6], first compound 0.078 µg/mL, partner 0.5 µg/mL	0.277
S. aureus DSM 20231 [6], first compound 0.156 µg/mL, partner 0.125 µg/mL	0.745
S. aureus DSM 20231 [6], first compound 0.156 µg/mL, partner 0.25 µg/mL	0.584
S. aureus DSM 20231 [6], first compound 0.156 µg/mL, partner 0.5 µg/mL	0.297
S. pneumoniae D39V [5], first compound 0.0018 µg/mL, partner 0.105 µg/mL	0.913
S. pneumoniae D39V [5], first compound 0.0018 µg/mL, partner 0.2 µg/mL	0.642
S. pneumoniae D39V [5], first compound 0.0018 µg/mL, partner 0.21 µg/mL	0.807
S. pneumoniae D39V [5], first compound 0.0018 µg/mL, partner 0.4 µg/mL	0.633
S. pneumoniae D39V [5], first compound 0.0018 µg/mL, partner 0.42 µg/mL	0.643
S. pneumoniae D39V [5], first compound 0.0018 µg/mL, partner 0.8 µg/mL	0.238
S. pneumoniae D39V [5], first compound 0.0035 µg/mL, partner 0.105 µg/mL	0.905
S. pneumoniae D39V [5], first compound 0.0035 µg/mL, partner 0.2 µg/mL	0.604
S. pneumoniae D39V [5], first compound 0.0035 µg/mL, partner 0.21 µg/mL	0.808
S. pneumoniae D39V [5], first compound 0.0035 µg/mL, partner 0.4 µg/mL	0.615
S. pneumoniae D39V [5], first compound 0.0035 µg/mL, partner 0.42 µg/mL	0.666
S. pneumoniae D39V [5], first compound 0.0035 µg/mL, partner 0.8 µg/mL	0.217
S. pneumoniae D39V [5], first compound 0.007 µg/mL, partner 0.105 µg/mL	0.797
S. pneumoniae D39V [5], first compound 0.007 µg/mL, partner 0.2 µg/mL	0.597
S. pneumoniae D39V [5], first compound 0.007 µg/mL, partner 0.21 µg/mL	0.693
S. pneumoniae D39V [5], first compound 0.007 µg/mL, partner 0.4 µg/mL	0.58
S. pneumoniae D39V [5], first compound 0.007 µg/mL, partner 0.42 µg/mL	0.445
S. pneumoniae D39V [5], first compound 0.007 µg/mL, partner 0.8 µg/mL	0.173

one replicate
Details	fitness
B. subtilis 168 [7], first compound 0.00775 µg/mL, partner 0.125 µg/mL	0.688
B. subtilis 168 [7], first compound 0.00775 µg/mL, partner 0.25 µg/mL	0.141
B. subtilis 168 [7], first compound 0.00775 µg/mL, partner 0.5 µg/mL	0.0663
B. subtilis 168 [7], first compound 0.0155 µg/mL, partner 0.125 µg/mL	0.495
B. subtilis 168 [7], first compound 0.0155 µg/mL, partner 0.25 µg/mL	0.0491
B. subtilis 168 [7], first compound 0.0155 µg/mL, partner 0.5 µg/mL	0.0426
B. subtilis 168 [7], first compound 0.031 µg/mL, partner 0.125 µg/mL	0.462
B. subtilis 168 [7], first compound 0.031 µg/mL, partner 0.25 µg/mL	0.0621
B. subtilis 168 [7], first compound 0.031 µg/mL, partner 0.5 µg/mL	0.0534
B. subtilis 168 [7], first compound 0.0625 µg/mL, partner 0.0625 µg/mL	0.553
B. subtilis 168 [7], first compound 0.0625 µg/mL, partner 0.125 µg/mL	0.327
B. subtilis 168 [7], first compound 0.0625 µg/mL, partner 0.25 µg/mL	0.0561
B. subtilis 168 [7], first compound 0.125 µg/mL, partner 0.0625 µg/mL	0.413
B. subtilis 168 [7], first compound 0.125 µg/mL, partner 0.125 µg/mL	0.216
B. subtilis 168 [7], first compound 0.125 µg/mL, partner 0.25 µg/mL	0.0505
B. subtilis 168 [7], first compound 0.25 µg/mL, partner 0.0625 µg/mL	0.308
B. subtilis 168 [7], first compound 0.25 µg/mL, partner 0.125 µg/mL	0.189
B. subtilis 168 [7], first compound 0.25 µg/mL, partner 0.25 µg/mL	0.0533
S. aureus DSM 20231 [6], first compound 0.039 µg/mL, partner 1 µg/mL	0.0567
S. aureus DSM 20231 [6], first compound 0.078 µg/mL, partner 1 µg/mL	0.0664
S. aureus DSM 20231 [6], first compound 0.156 µg/mL, partner 1 µg/mL	0.0626
S. aureus DSM 20231 [6], first compound 0.312 µg/mL, partner 0.125 µg/mL	0.658
S. aureus DSM 20231 [6], first compound 0.312 µg/mL, partner 0.25 µg/mL	0.545
S. aureus DSM 20231 [6], first compound 0.312 µg/mL, partner 0.5 µg/mL	0.342
